Assay results published in patent publication US11078256B2, “Methods and compositions for inhibiting cancer cell growth” (THE BOARD OF REGENTS OF THE UNIVERSITY OF TEXAS SYSTEM, priority 2018, dated 2021).
Like-named read-outs stand apart in the source and are kept apart here. No end group written: not given here.

Key:
Assay type in all cases: cell-based, Human
[1] = tested on: AU565 breast cancer cell line (Her2/neu and p53 positive)
Procedure: (§1) Experimental design: The experimental design (see FIG. 1) was to seed the HCC38 breast cancer cell line (BCCL) with the p1978 pep-tide in order to determine the effects of the peptide on cell growth. The HCC38 cell line was chosen because of its triple negative receptor status. […] They are more likely to recur than other subtypes of breast cancer.
(§2) The 184B5 (normal breast tissue cells) were seeded to serve as a negative control while the AU565 BCCL, a cell line with a positive Her2/neu and p53 receptor status, was inoculated to serve as a positive control. In the initial phase, treatment cell lines were treated with 8.26 μg/ml of p1978. The con-centration corresponds closely to the average SMR3B (the parent protein of the p1978 peptide), concentration, plus one standard deviation found in healthy breast tissues. A second experiment was performed doubling the concentration of 1978 to 16.52 μg/ml. FIG. 1 represents a schematic of the design used for the study.
(§3) Corresponding unseeded cell lines served as controls. The controls were treated with a placebo containing 1.0 ml of sterile PBS (for cell culture). An expanded dose-response experiment was not performed due to limited resources. The experiment ended 48 hours after seeding. The outcome variables of this study were total cell count, live cell count and percent viability.
(§4) Cell lines: Human breast cell lines HCC38 (HCC38 BL (ATCC® CRL-2346™), AU565 (ATCC® CRL2351™) and 184B5 (ATCC® CRL-8799™) were purchased from the American Type Culture Collection. Cell line descriptions are summarized in Table 1.
(§5) Cell growth procedures: The aforementioned cell lines were thawed in a 37.0 water bath with gentle agitation. The vials were decontaminated and the cells were added drop wise to 9 ml of their prospective culture media while gently mixing. The cell suspension was centrifuged at 1,000 rpm for five minutes. The supernatant was carefully removed and the cell pellet was resuspended in 5.0 ml of media. Each cell line was checked for viability using a hemocytometer and a cell count/ml was calculated. Nine plates were seeded of each cell line at a total of 1.0×10^6 cells/100 mm plates. Once the plates reached 30% confluency, nine plates of each cell line were treated with 8.26 μg/ml (4.95 μM) of p1978 peptide and a set of nine control plates were treated with 1.0 ml of phosphate buffered saline (PBS). They were incubated and harvested by trypsinization in 48 hours. The cells from each plate were counted for the total number of cells and were assessed for viability using the trypan blue exclusion test of cell viability. The same procedures were repeated for the higher 16.52 ug/ml (9.88 uM) dose.
(§6) Statistics: Data was tabulated using SPSS statistical software. The outcome variables of this study were total cell count, live cell count and percent viability. To assess these variables, descriptive statistics were employed to compare p1978 treated cells relative to the control cells. The approach consisted mainly of bar charts, mean cell counts and mean percentages. The cellular growth rate was determined by subtracting the resultant or final cell count from its baseline value. The difference was divided by 48 hours the growing time for the cells. The results were expressed in cells/hour.
(§7) A homoscedastic univariate t-test was computed for differences between the treated and the control groups. The arithmetic mean value of the control group was used as the “cut-point” value. The alpha level was p<0.05.

[2] = tested on: HCC38 breast cancer cell line (triple negative); test: Cell growth: total and live cell count, trypan blue exclusion viability, 48 hours after seeding with p1978; parameters: key to Total growth rate, Treated / Live growth rate, Treated: N.G. = Negative Growth
Procedure: as §1, §2, §3, §4, §5, §6, §7

in vitro = settings: human
Procedure: as §1, §2, §3, §4, §5, §6, §7

[3] = tested on: 184B5 cell line (normal breast tissue cells); test: in vitro
Procedure: as §1, §2, §3, §4, §5, §6, §7

[4] = AU565, 8.26 ug/ml p1978, 48 hours
[5] = AU565, 8.26 μg/ml p1978, over 48 hours
[6] = AU565, 16.52 μg/ml p1978, 48 hours
[7] = AU565, 16.52 μg/ml p1978, 48 hours, footnote: * represents 10^5
[8] = AU565, 16.52 μg/ml p1978, over 48 hours
[9] = HCC38, 8.26 μg/ml p1978, over 48 hours
[10] = HCC38, 16.52 μg/ml p1978, 48 hours
[11] = HCC38, 16.52 μg/ml p1978, over 48 hours
[12] = 184B5, 8.26 ug/ml p1978, 48 hours
[13] = 184B5, 8.26 μg/ml p1978, over 48 hours
[14] = 184B5, 16.52 ug/ml p1978, 48 hours
[15] = 184B5, 16.52 μg/ml p1978, 48 hours
[16] = 184B5, 16.52 μg/ml p1978, over 48 hours

PRGPYPPGPLAPPQ [p1978, PRGPYPPGPLAPPQ]
live cell count higher than control group [1, 4]: 11.7% | total cell count higher than control group [1, 4]: 31.5% | Live growth rate, Treated [1, 5]: 0.77 10^4 cells/hour | Total growth rate, Treated [1, 5]: 1.38 10^4 cells/hour | knockdown effect on cell count ([1]; AU565, 16.52 ug/ml p1978): No knockdown effect | increase in living cell count ([1]; AU565, 16.52 ug/ml p1978, 48 hours): 23.1% | % Live, Treated [1, 6]: 75% | Live × 10^6 (mean cell count with standard deviation), Treated [1, 6]: 1.60 (±0.42) × 10^6 | Live × 10^6, Treated - Control [1, 6]: 0.30 × 10^6 | Total × 10^6 (mean cell count with standard deviation), Treated [1, 6]: 2.14 (±0.50) × 10^6 | Total × 10^6, Treated - Control [1, 6]: 0.27 × 10^6 | Live, Treated - Baseline [1, 7]: 0.24* 10^5 | Total, Treated - Baseline [1, 7]: 0.24* 10^5 | Live growth rate, Treated [1, 8]: 0.50 10^4 cells/hour | Total growth rate, Treated [1, 8]: 0.50 10^4 cells/hour | percent viability, treated ([1]; human, 48 hours, 8.26 ug/ml): 61% | reduction of total cell count versus control ([2]; HCC38, 8.26 ug/ml p1978, 48 hours): 20.8% | reduction of living cell count versus control ([2]; HCC38, 8.26 ug/ml p1978, 48 hours, t=−3.25, p 0.08): 33.2% | Live growth rate, Treated [2, 9]: N.G. | Total growth rate, Treated [2, 9]: N.G. | growth rate difference, treated versus control ([2]; HCC38, 16.52 ug/ml p1978): −38% | average total number of cells higher in control than in treated (knockdown effect) ([2]; HCC38, 16.52 ug/ml p1978, 48 hours): 22.4% | % Live, Treated [2, 10]: 92% | Live × 10^6 (mean cell count with standard deviation), Treated [2, 10]: 1.87 (±0.43) × 10^6 | Live × 10^6, Treated - Baseline [2, 10]: 1.10 × 10^6 | Live × 10^6, Treated - Control [2, 10]: −0.67 × 10^6 | Total × 10^6 (mean cell count with standard deviation), Treated [2, 10]: 2.03 (±0.62) × 10^6 | Total × 10^6, Treated - Baseline [2, 10]: 1.03 × 10^6 | Total × 10^6, Treated - Control [2, 10]: −0.61 × 10^6 | decrease in the number of living cells as compared to the control ([2]; HCC38, 16.52 ug/ml p1978, 48 hours, t=−3.08, p<0.05): 37.9% | Live growth rate, Treated [2, 11]: 2.29 10^4 cells/hour | Total growth rate, Treated [2, 11]: 2.16 10^4 cells/hour | viability at 48 hours, 8.26 μg/ml (in vitro): 91% | viability at 48 hours, 16.52 μg/ml (in vitro): 95 to 98% | difference in growth rate between the treated and the controls ([3]; 184B5, 8.26 ug/ml p1978): almost negligible difference | higher living cell count for the treated cells as compared to the control [3, 12]: 3.5% | higher total cell count for the treated cells as compared to the control [3, 12]: 7.5% | Live growth rate, Treated [3, 13]: 0.59 10^4 cells/hour | Total growth rate, Treated [3, 13]: 1.11 10^4 cells/hour | effect on cell viability or growth rate ([3]; 184B5, 16.52 ug/ml p1978): no effect | increase in the living cell count for the treated cells as compared to the control [3, 14]: 63.7% | increase in the total cell count for the treated cells as compared to the control [3, 14]: 22.4% | % Live, Treated [3, 15]: 98% | Live × 10^6 (mean cell count with standard deviation), Treated [3, 15]: 4.82 (±0.75) × 10^6 | Live × 10^6, Treated - Baseline [3, 15]: 2.57 × 10^6 | Live × 10^6, Treated - Control [3, 15]: 1.00 × 10^6 | Total × 10^6 (mean cell count with standard deviation), Treated [3, 15]: 4.91 (±0.63) × 10^6 | Total × 10^6, Treated - Baseline [3, 15]: 2.62 × 10^6 | Total × 10^6, Treated - Control [3, 15]: 0.90 × 10^6 | Live growth rate, Treated [3, 16]: 2.77 10^4 cells/hour | Total growth rate, Treated [3, 16]: 7.83 10^4 cells/hour
